Holding throughout (assay type): cell-based
The target of one assay is T1, RARα (Homo sapiens, UniProt P10276).
T1 construct: gal4 (fusion partner); expressed in transfected cells; host or cells: COS-7
T1 sequence (P10276 183-417 limits assumed): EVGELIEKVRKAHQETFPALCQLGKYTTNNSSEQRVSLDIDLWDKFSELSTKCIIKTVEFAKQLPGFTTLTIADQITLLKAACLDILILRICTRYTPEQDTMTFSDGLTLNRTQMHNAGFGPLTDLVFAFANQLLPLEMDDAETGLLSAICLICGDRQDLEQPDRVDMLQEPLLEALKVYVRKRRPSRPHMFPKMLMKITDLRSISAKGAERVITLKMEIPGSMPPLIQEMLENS
The assay is described as follows: Transactivation assay for RAR alpha (gal4-RAR fusion, luciferase reporter, COS-7 cells). As to conditions: for RARα/RARβ ratio (*): fold-selectivity for RARα over RARβ; for RARα activity ratio: ratio of test compound EC50 to that of atRA on the same plate; for Improvement (RARα activity ratio) / Improvement (RARα/RARβ ratio): compared with XXX-03. How it is done: (§1) Transcriptional transactivation assays were performed with gal4 fusion receptor constructs, created using each of the RAR ligand binding domains, co-transfected with the pFR-luc (Stratagene™) reporter construct in COS-7 cells.
(§2) Briefly, on day 1, 96 well plates were seeded with 8000 cells per well then left to recover overnight. On day 2, the cells were co-transfected with 100 ng of reporter plasmid and 10 ng of the appropriate receptor plasmid per well using lipofectamine (Invitrogen™). On day 3, the lipofectamine containing media was replaced by a DMEM without phenol red, followed by the addition of test compound dissolved in 1 μL of DMSO to each well's 100 μL total volume. Finally, on day 4, the cells were lysed and their luciferase substrate was provided by the BrightGlo™ reagent (Promega™), the plates were then read on the MicroBeta TriLux™ (Perkin Elmer™).
(§3) Where replicate data has been generated, the data are quoted as a ratio of the mean EC50 from the separate experiments.

A further assay addresses T2, RARγ (Homo sapiens, UniProt P13631).
T2 construct: gal4 (fusion partner); expressed in transfected cells; host or cells: COS-7
T2 sequence (P13631 185-419 limits assumed): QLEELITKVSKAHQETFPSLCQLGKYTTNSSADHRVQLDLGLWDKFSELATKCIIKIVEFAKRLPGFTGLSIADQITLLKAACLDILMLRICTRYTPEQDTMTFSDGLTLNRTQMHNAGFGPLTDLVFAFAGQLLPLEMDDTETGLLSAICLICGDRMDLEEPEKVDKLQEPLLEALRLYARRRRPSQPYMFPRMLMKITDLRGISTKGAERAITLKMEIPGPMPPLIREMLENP
The assay is described as follows: Transactivation assay for RAR gamma (gal4-RAR fusion, luciferase reporter, COS-7 cells). To be noted: ratio of test compound EC50 to that of atRA; inactive = no agonist action at the highest concentration tested. How it is done: as §1, §2, §3

Another assay addresses T3, RARβ (Homo sapiens, UniProt P10826).
T3 construct: gal4 (fusion partner); expressed in transfected cells; host or cells: COS-7
T3 sequence (P10826 183-417 limits assumed): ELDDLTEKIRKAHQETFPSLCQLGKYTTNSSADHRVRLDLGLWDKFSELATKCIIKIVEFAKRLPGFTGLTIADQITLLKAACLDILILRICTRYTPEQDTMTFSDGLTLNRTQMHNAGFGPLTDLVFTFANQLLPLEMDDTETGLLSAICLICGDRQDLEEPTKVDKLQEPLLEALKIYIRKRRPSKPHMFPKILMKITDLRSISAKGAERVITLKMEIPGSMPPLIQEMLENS
The assay can be described thus: Transactivation assay for RAR beta (gal4-RAR fusion, luciferase reporter, COS-7 cells). As to conditions: ratio of test compound EC50 to that of atRA; inactive = no agonist action at the highest concentration tested. How it is done: as §1, §2, §3

Where only a bound is given, the exact number is not on record here.

Consider `CCOc1c(Cl)cc(C(=O)Nc2ccc(C(=O)O)cc2)cc1C(F)(F)F` [AAA-025, 4-(3-Chloro-4-ethoxy-5-(trifluoromethyl)benzamido)benzoic acid], for which, at RARα (compared with XXX-01), the “increase in RARα activity” value is reported as 65 fold and the “increase in RARα versus RARβ selectivity” value came out at 3 fold. Moreover, the RARγ activity ratio result on RARγ was “inactive”. Moreover, the RARβ activity ratio on RARβ worked out at 131.

Turning to `CCOc1c(Cl)cc(C(=O)Nc2ccc(C(=O)O)nc2)cc1Cl` [AAA-026, 5-(3,5-Dichloro-4-ethoxybenzamido)picolinic acid], on RARα, the “RARα/RARβ ratio (*)” value is given as 27.3 and the RARα activity ratio was determined as 180. For the same compound, on RARγ, the RARγ activity ratio result is “inactive”. Moreover, on RARβ, the RARβ activity ratio is given as 4920.

`CCOc1cc(C(=O)Nc2ccc(C(=O)O)cc2)cc(OCC)c1OCC` [AAA-028, 4-(3,4,5-triethoxy-benzoylamino)-benzoic acid]: on RARα, the “RARα/RARβ ratio (*)” value stood at 173.0 and the RARα activity ratio amounted to 370. Also, at RARγ, the RARγ activity ratio entry is “inactive”. Further, the RARβ activity ratio at RARβ worked out at 64000.

Turning to `CCOc1c(Cl)cc(C(=O)Nc2ccc(C(=O)O)cc2)cc1Cl` [AAA-029, 4-(3,5-Dichloro-4-ethoxy-benzoylamino)-benzoic acid], at RARα, the “Improvement (RARα activity ratio)” value is given as ~3.8-fold and the “Improvement (RARα/RARβ ratio)” value is recorded as ~11-fold. For the same compound, the RARγ activity ratio entry at RARγ is “inactive”. Moreover, the RARβ activity ratio at RARβ was determined as 1920.

For the compound `COc1c(Cl)cc(C(=O)Nc2ccc(C(=O)O)cc2)cc1Cl` [AAA-030, 4-(3,5-Dichloro-4-methoxy-benzoylamino)-benzoic acid], on RARα, the “Improvement (RARα activity ratio)” value is reported as ~3.1-fold and the “Improvement (RARα/RARβ ratio)” value is ~46-fold. For the same compound, the RARγ activity ratio at RARγ is recorded as 5850. In addition, at RARβ, the RARβ activity ratio is on record as 9525.

In the case of `CCOc1c(Cl)cc(C(=O)Nc2ccc(C(=O)O)c(C(F)(F)F)c2)cc1Cl` [AAA-033, 4-(3,5-Dichloro-4-ethoxybenzamido)-2-(trifluoromethyl)benzoic acid], at RARα, the “RARα/RARβ ratio (*)” value worked out at 1.5 and the RARα activity ratio was determined as 13. Further, the RARγ activity ratio on RARγ amounted to 148. The RARβ activity ratio on RARβ stood at 19.

On to `CC(C)Oc1c(Cl)cc(C(=O)Nc2ccc(C(=O)O)cc2)cc1C(F)(F)F` [AAA-034, 4-(3-Chloro-4-isopropoxy-5-(trifluoromethyl)benzamido)benzoic acid], for which, on RARα, the “RARα/RARβ ratio (*)” value is reported as 122 and the RARα activity ratio worked out at 2. The RARγ activity ratio on RARγ came out at 1250. Further, the RARβ activity ratio on RARβ is on record as 244.

Take `COc1c(Cl)cc(C(=O)Nc2ccc(C(=O)O)cc2)cc1C(F)(F)F` [AAA-035, 4-(3-Chloro-4-methoxy-5-(trifluoromethyl)benzamido)benzoic acid]: at RARα, the “RARα/RARβ ratio (*)” value was found to be 8700 and the RARα activity ratio came out at 0.30. The RARγ activity ratio at RARγ was 87000. For the same compound, the RARβ activity ratio at RARβ was 2620.

For `O=C(O)c1ccc(NC(=O)c2cc(Cl)c(OC3CCC3)c(C(F)(F)F)c2)cc1` [AAA-036, 4-(3-Chloro-4-cyclobutoxy-5-(trifluoromethyl)benzamido)benzoic acid], on RARα, the “RARα/RARβ ratio (*)” value is 31 and the RARα activity ratio was 7.0. Further, at RARγ, the RARγ activity ratio amounted to 2438. In addition, the RARβ activity ratio on RARβ came to 215.

`CC(C)(C)Oc1c(Cl)cc(C(=O)Nc2ccc(C(=O)O)cc2)cc1C(F)(F)F` [AAA-037, 4-(4-(tert-Butoxy)-3-chloro-5-(trifluoromethyl)benzamido)benzoic acid]: at RARα, the “RARα/RARβ ratio (*)” value turned out to be 1300 and the RARα activity ratio came to 0.25. In addition, on RARγ, the RARγ activity ratio was greater than 2600. In addition, the RARβ activity ratio at RARβ was 324.

As to `Cc1cc(NC(=O)c2cc(Cl)c(OC(C)(C)C)c(C(F)(F)F)c2)ccc1C(=O)O` [AAA-038, 4-(4-(tert-Butoxy)-3-chloro-5-(trifluoromethyl)benzamido)-2-methylbenzoic acid], on RARα, the “RARα/RARβ ratio (*)” value was determined as 98 and the RARα activity ratio was found to be 0.50. For the same compound, on RARγ, the RARγ activity ratio stood at 0.36. For the same compound, the RARβ activity ratio on RARβ came to 49.

As to `CCOc1c(Cl)cc(C(=O)Nc2ccc(C(=O)O)c(C)c2)cc1C(F)(F)F` [AAA-039, 4-(3-Chloro-4-ethoxy-5-(trifluoromethyl)benzamido)-2-methylbenzoic acid], at RARα, the “RARα/RARβ ratio (*)” value amounted to 59 and the RARα activity ratio was determined as 3.0. Moreover, the RARγ activity ratio on RARγ is 2985. For the same compound, the RARβ activity ratio on RARβ came out at 177.

With `Cc1cc(NC(=O)c2cc(Cl)c(OC(C)C)c(C(F)(F)F)c2)ccc1C(=O)O` [AAA-040, 4-(3-Chloro-4-isopropoxy-5-(trifluoromethyl)benzamido)-2-methylbenzoic acid], at RARα, the “RARα/RARβ ratio (*)” value is on record as 55 and the RARα activity ratio is reported as 1.1. At RARγ, the RARγ activity ratio worked out at 194. Also, the RARβ activity ratio on RARβ is 60.

Regarding `COc1c(Cl)cc(C(=O)Nc2ccc(C(=O)O)c(C)c2)cc1C(F)(F)F` [AAA-041, 4-(3-Chloro-4-methoxy-5-(trifluoromethyl)benzamido)-2-methylbenzoic acid], at RARα, the “RARα/RARβ ratio (*)” value is listed as 44 and the RARα activity ratio worked out at 5.4. Further, at RARγ, the RARγ activity ratio came to 31340. In addition, the RARβ activity ratio on RARβ was 238.

As for `CCOc1c(Br)cc(C(=O)Nc2ccc(C(=O)O)cc2)cc1C(F)(F)F` [AAA-042, 4-(3-Bromo-4-ethoxy-5-(trifluoromethyl)benzamido)benzoic acid], at RARα, the “RARα/RARβ ratio (*)” value stood at 68 and the RARα activity ratio is listed as 5.4. Also, at RARγ, the RARγ activity ratio turned out to be 6000. Also, the RARβ activity ratio on RARβ came out at 369.

In the case of `O=C(O)c1ccc(NC(=O)c2cc(Cl)c(OC3CCCC3)c(C(F)(F)F)c2)cc1` [AAA-043, 4-(3-Chloro-4-(cyclopentyloxy)-5-(trifluoromethyl)benzamido)benzoic acid], on RARα, the “RARα/RARβ ratio (*)” value was found to be 27 and the RARα activity ratio is reported as 2. Besides, the RARγ activity ratio on RARγ worked out at 688. Further, the RARβ activity ratio at RARβ is 53.

As to `O=C(O)c1ccc(NC(=O)c2cc(Cl)c(OC3CCCC3)c(OC3CCCC3)c2)cc1` [AAA-044, 4-(3-Chloro-4,5-bis(cyclopentyloxy)benzamido)benzoic acid], on RARα, the “RARα/RARβ ratio (*)” value is recorded as 32 and the RARα activity ratio is 1.7. Besides, at RARγ, the RARγ activity ratio is reported as 571. On RARβ, the RARβ activity ratio worked out at 55.

As to `O=C(O)c1ccc(NC(=O)c2cc(Cl)c(OCc3ccccc3)c(OCc3ccccc3)c2)cc1` [AAA-045, 4-(3,4-bis(benzyloxy)-5-chlorobenzamido)benzoic acid], on RARα, the “RARα/RARβ ratio (*)” value is on record as 39 and the RARα activity ratio is 7.3. The RARγ activity ratio at RARγ was 3651. Also, the RARβ activity ratio on RARβ is on record as 283.

For `Cc1cc(NC(=O)c2cc(Cl)c(OC3CCCC3)c(OC3CCCC3)c2)ccc1C(=O)O` [AAA-046, 4-(3-Chloro-4,5-bis(cyclopentyloxy)benzamido)-2-methylbenzoic acid], at RARα, the “RARα/RARβ ratio (*)” value is on record as 43 and the RARα activity ratio is recorded as 2.8. For the same compound, at RARγ, the RARγ activity ratio is on record as 698. On RARβ, the RARβ activity ratio is 121.

As for `O=C(O)c1ccc(NC(=O)c2cc(Cl)c(OC3CCCCC3)c(OC3CCCCC3)c2)cc1` [AAA-047, 4-(3-Chloro-4,5-bis(cyclohexyloxy)benzamido)benzoic acid], at RARα, the “RARα/RARβ ratio (*)” value came to 2 and the RARα activity ratio was 11. In addition, the RARγ activity ratio at RARγ amounted to 270. The RARβ activity ratio at RARβ worked out at 22.

Consider `CC(C)(C)Oc1cc(C(=O)Nc2ccc(C(=O)O)cc2)cc(Cl)c1OC(C)(C)C` [AAA-048, 4-(3,4-Di-tert-butoxy-5-chlorobenzamido)benzoic acid], for which, on RARα, the “RARα/RARβ ratio (*)” value came to 44 and the RARα activity ratio was 0.86. The RARγ activity ratio on RARγ came to 162. At RARβ, the RARβ activity ratio is reported as 38.

(Values after patent publication US9447028B2, “Therapeutic aryl-amido-aryl compounds and their use” (King's College London, priority 2009, dated 2016).)
